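Growth conditions: 96-well plates. Treatment: test compound, 48 hours, 5 concentrations. Analysis: linear interpolation between bracketing concentrations; unreached endpoints set to highest concentration. Abbreviation: GI50, concentration required for 50% inhibition of growth. The concentration for full growth arrest is given as TGI.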
How the values were obtained:
Assay in all cases: NCI tumour cell line growth inhibition, 48 h
SK-MEL-2 melanoma = tested on: SK-MEL-2 melanoma
RXF 393 renal = tested on: RXF 393 renal
MALME-3M melanoma = tested on: MALME-3M melanoma
HCC-2998 colon = tested on: HCC-2998 colon
MDA-N = tested on: MDA-N
MDA-MB-231 breast = tested on: MDA-MB-231 breast
NCI/ADR-RES ovarian = tested on: NCI/ADR-RES ovarian
786-0 renal = tested on: 786-0 renal
SR leukemia = tested on: SR leukemia
UO-31 renal = tested on: UO-31 renal

SMILES	TGI (SK-MEL-2 melanoma) [µM]	TGI (RXF 393 renal) [µM]	TGI (MALME-3M melanoma) [µM]	TGI (HCC-2998 colon) [µM]	TGI (MDA-N) [µM]	TGI (MDA-MB-231 breast) [µM]	TGI (NCI/ADR-RES ovarian) [µM]	TGI (786-0 renal) [µM]	TGI (SR leukemia) [µM]	TGI (UO-31 renal) [µM]	GI50 (MDA-N) [µM]	GI50 (NCI/ADR-RES ovarian) [µM]	GI50 (SR leukemia) [µM]
COc1ccc2cc1Oc1ccc(cc1)C(Sc1ccccc1)CCOC(=O)CC2 (stereo unspecified)	> 100	> 100	> 100	> 100	> 100	> 100	> 100	> 100	> 100	> 100			
COC(=O)c1ccccc1C#CC#Cc1ccccc1C(=O)OC	> 10	> 10	> 10	> 10	> 10	> 10	> 10	> 10	> 10	> 10			
O=C1C(NCCc2ccc(O)c(O)c2)=CC(=O)c2ncccc21	21.5	28.4	18.4	27.8	4.74	16.1	25.1	43.2	> 100	24.4			
[Se]=P(c1ccccc1)(c1ccccc1)c1ccc(C(c2ccccc2)=P(c2ccccc2)(c2ccccc2)c2ccccc2)cc1	6.21	10.9	2.51	11.6	4.57	7.33	> 54.1	10.8	> 33.3	20.1			
O=C1C(F)=CC(COC(c2ccccc2)(c2ccccc2)c2ccccc2)OC1n1cc(F)c(=O)[nH]c1=O (stereo unspecified)	7.49	4.11	31.4	14.1	3.38	18.5	8.31	3.92	> 100	5.61			
O=C1Sc2ccc(Br)cc2C(=O)Sc2ccccc21	36.6	12.4	23.6	29.6	22.8	31.7	60	25.6	4.13	27.1			
C/C(=N/NC(=S)Nc1ccccc1Cl)c1cccc(/C(C)=N\NC(=S)Nc2ccccc2Cl)n1	> 100	> 100	> 100	> 100	> 100	75.2	> 100	> 100	> 100	> 100			
Cc1c(C(=O)N2CCN(c3ccc([N+](=O)[O-])cc3)CC2)[n+](=O)c2cc(Cl)c(Cl)cc2n1[O-]	> 100	27.5	48.4	33.2	> 100	46.7	32.7	30.8	61.2				
COc1ccc(O[C@H](COCc2ccccc2)C[C@@H]2COC(C)(C)O2)cc1	> 100	> 100	> 100	> 100	> 100	> 100	> 100	> 100	> 100	> 100			
Cc1ccc(OCC2OC(n3cnc4nc(Cl)nc(Cl)c43)CC2Oc2ccc(C)cc2)cc1 (stereo unspecified)	18.1	15.7	33.9	12.2	13.7	6.56	37.8	19.9	5.65	22			
CN(C)c1ccc(/C=C2\N=C(NN)NC2=O)cc1	> 100	> 100	> 100	> 100	> 100	> 100	> 100	> 100	> 100	> 100			
COc1ccc2[nH]c(Cl)c(/C=C3/C(=O)Nc4cc(C)c(OC)cc43)c2c1	7.8	27.9	18.2	17.2	3.5	20.6	6.47	19.8	> 100	28.5			
C=CCOc1ccccc1N=N/C(C#N)=N\Nc1ccccc1OCC=C	> 100	> 100	> 100	> 100	94.7	> 100	> 100	> 100	> 100	> 100			
CC(C)C(C/C=C1\CC(CO)(COC(=O)c2ccccc2)OC1=O)C(C)C (stereo unspecified)	> 100	45.4	31.9	44.8	57.8	44.2	45	28.3	> 100	32.4			
O=C(/C=C/c1ccsc1)c1ccco1	38.9	27		26.3	25.2	26.9	40.5	24.4	9.14	22.7			
COC(=O)C(CCc1ccccc1I)C1=CCC2(CC1)OCCO2 (stereo unspecified)	> 100	67.2	> 100	> 100	94.3	> 100	> 100	> 100	> 100	76.2			

SMILES	TGI (SK-MEL-2 melanoma) [µM]	TGI (RXF 393 renal) [µM]	TGI (MALME-3M melanoma) [µM]	TGI (HCC-2998 colon) [µM]	TGI (MDA-N) [µM]	TGI (MDA-MB-231 breast) [µM]	TGI (NCI/ADR-RES ovarian) [µM]	TGI (786-0 renal) [µM]	TGI (SR leukemia) [µM]	TGI (UO-31 renal) [µM]	GI50 (MDA-N) [µM]	GI50 (NCI/ADR-RES ovarian) [µM]	GI50 (SR leukemia) [µM]
NC(=Nc1ccc(O)cc1)S(=O)(=O)O	> 100	> 100	> 100	> 100	> 100	> 100	> 100	> 100	> 100	> 100			
CN(C)c1nc(NC23CC4CC(CC(C4)C2)C3)nc(N(C)C)n1	63.1	17.7	> 71.5	97.1	> 45.9	> 57	> 100	> 89.5	53.9	> 77.2			
COc1cc(OC)c2c(O)c3c(cc2c1)CC(C)(C)CC3=O	> 100	> 100	> 100	> 100	> 100	> 100	> 100	> 100	> 100	> 100			
CC(C(=O)ON1C(=O)CCC1=O)c1ccc(C(=O)c2ccccc2)s1 (stereo unspecified)	> 100	> 100	> 100	> 100	> 100	> 100	> 100	> 100	> 100	> 100			
O=C1/C(=C\c2cccc(Oc3ccccc3)c2)S(=O)(=O)C(c2ccccc2)N1c1ccccc1Cl (stereo unspecified)	> 100	> 100	> 100	> 100	50.2	> 100	> 100	> 100	62.4	> 100			
CC(C)[C@@H]1CC[C@@H](C)C[C@H]1OC(=O)/C=C1/C2C=CC(O2)C1C(=O)O[C@@H]1C[C@H](C)CC[C@H]1C(C)C (stereo partly specified)		> 100	> 100	> 100	> 100	> 100	> 100	> 100	> 100	> 100			
O=[N+]([O-])/C(C(Cl)=C(Cl)Cl)=C1\NCCO1	> 100	> 100	> 100	> 100	> 100	> 100	> 100	> 100	> 100	> 100			
COC1=C(N=[N+]=[N-])C(=O)c2ncccc2C1=O	37.5	11.9	5.03	31	3.69	25	25.6	16.3	> 100	27.6			
CCOC(=O)c1cc(C(=O)c2ccccc2)n2nc(-c3ccc(Cl)cc3)ccc12	32.6	32.7	46.3	51	> 100	> 100	81.8	33	> 100	27.1			
CC(=O)N1CCc2c([nH]c3ccc(Br)cc23)C1c1ccccc1 (stereo unspecified)	> 10	> 10	> 10	> 10	> 10	> 10	> 10	> 10	> 10	> 10			
Cn1c(=O)c2c(nc3n(Cc4ccccc4)c(=O)c(NCCBr)cn23)n(C)c1=O	74.2	35		52	> 100	72.2	60.2	37	52.9	36			
COC(=O)C(C)(N=Cc1ccccc1)c1ccccc1 (stereo unspecified)	> 100	> 100	> 100	> 100	> 100	> 100	> 100	> 100	> 100	> 100			
CCCCCC(=O)N[C@@H](c1ccccc1)C(O)C(=O)OC1C[C@@]2(O)C(OC(=O)c3ccccc3)C3[C@](C)(C(=O)[C@H](O)C(=C1C)C2(C)C)C(OC1OCC(O)C(O)C1O)C[C@H]1OC[C@@]31OC(C)=O (stereo partly specified)		> 41	> 26.1	10.5	1.03	> 100	> 100	> 100	40.2	> 100			
O=C1CSc2nc3ccccc3n2/C=N\N1	> 100	> 100		> 100	> 100	> 100	> 100	> 100	> 100	> 100			
CCOC(=O)c1c(Br)c(-c2ccc(Br)cc2)c(Br)n1C		34.2	62.7	42.1	32.5	50.1	87.5	89.7	26.1	> 100	5.64	21.2	10
Cn1ccn2c3nc4ccccc4nc3c(=O)c(C#N)c12	> 100	> 100	> 100	> 100	> 100	> 100	> 81.8	> 89.9	> 100	> 100			

From PubChem BioAssay (NCI)
